Source: patent US10335409B2 (priority 2012, dated 2019)
Like-named read-outs stand apart in the source and are kept apart here.

Assays:
[1] = tested on: genotype 4a (ED43) stable HCV replicon in Huh-7-derived cells; test: Stable subgenomic HCV replicon EC50, genotype 4a (Renilla luciferase); format: cell-based, hepatitis C virus; settings: 72 h, read-out: EC50 4A RLUC
Outline: (§1)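 Compounds, three-fold diluted, were applied to Huh-7-derived cells harbouring luciferase replicons (genotype 1a H77, 1b Con1, 2a JFH-1, 4a ED43, with strain-specific adaptive mutations). Seventy-two hours later, intracellular replication was gauged by Renilla luciferase activity and EC50 derived by regression.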

[2] = tested on: genotype 1a (H77) stable HCV replicon in Huh-7-derived cells; test: Stable subgenomic HCV replicon EC50, genotype 1a (Renilla luciferase); format: cell-based, hepatitis C virus; settings: stable replicon genotype 1a, 72 h, read-out: EC50 1A RLUC
Outline: as §1

[3] = tested on: genotype 3a (S52) stable HCV replicon in Huh-7-derived cells; test: Stable subgenomic HCV replicon EC50, genotype 3a (Renilla luciferase); format: cell-based, hepatitis C virus; settings: 72 h, read-out: EC50 3A RLUC
[4] = tested on: genotype 1b (Con1) stable HCV replicon in Huh-7-derived cells; test: Stable subgenomic HCV replicon EC50, genotype 1b (Renilla luciferase); format: cell-based, hepatitis C virus; settings: stable replicon genotype 1b, 72 h, read-out: EC50 1B RLUC
Outline: as §1

[5] = tested on: genotype 1a NS3/4a protease inhibitor resistant variant R155K transient HCV replicon in Huh-7-derived cells; test: Transient-transfected HCV replicon EC50, genotype 1a R155K; format: cell-based, hepatitis C virus; settings: 72 h
[6] = tested on: genotype 2a (JFH-1) stable HCV replicon in Huh-7-derived cells; test: Stable subgenomic HCV replicon EC50, genotype 2a (Renilla luciferase); format: cell-based, hepatitis C virus; settings: stable replicon genotype 2a, 72 h, read-out: EC50 2A RLUC
Outline: as §1

[7] = tested on: genotype 1b NS3/4a protease inhibitor resistant variant D168A transient HCV replicon in Huh-7-derived cells; test: Transient-transfected HCV replicon EC50, genotype 1b D168A; format: cell-based, hepatitis C virus; settings: 72 h
[8] = tested on: genotype 1b (Con1) wild type transient HCV replicon in Huh-7-derived cells; test: Transient-transfected HCV replicon EC50, genotype 1b wild type; format: cell-based, hepatitis C virus; settings: 72 h, transient-transfected replicon genotype 1b wild type, read-out: EC50 1B WT
[9] = tested on: genotype 1a (H77) wild type transient HCV replicon in Huh-7-derived cells; test: Transient-transfected HCV replicon EC50, genotype 1a wild type; format: cell-based, hepatitis C virus; settings: 72 h, transient-transfected replicon genotype 1a wild type, read-out: EC50 1A WT
[10] = tested on: genotype 3a (S52) wild type transient HCV replicon in Huh-7-derived cells; test: Transient-transfected HCV replicon EC50, genotype 3a wild type; format: cell-based, hepatitis C virus; settings: Hepatitis C virus; transient-transfected replicon genotype 3a wild type, 72 h; read-out: EC50 3A WT
[11] = target: HCV NS3 protease domain genotype 3a (Hepatitis C virus genotype 3a, UniProt Q81258); test: Ki determination, NS3 protease genotype 3a (fluorogenic depsipeptide substrate); format: biochemical; settings: 200 pM enzyme, NS4A peptide
Source text: Purified NS3 protease domain (amino acids 1-181) of the genotype 1b and 3a virus were generated as above. The internally quenched fluorogenic depsipeptide substrate Ac-DED(Edans)-EEAbuΨ[COO]ASK(Dabcyl)-NH2 and a synthetic peptide containing the hydrophobic core residues of the NS4A protein cofactor ([…]; NS4A peptide) were obtained from Anaspec, Inc. (San Jose, Calif.). Other chemicals and biochemicals were of reagent grade or better and were purchased from standard suppliers.
Reactions were run at room temperature in buffer consisting of 50 mM HEPES, 40% glycerol, 0.05% Triton X-100, 10 mM DTT, and 10% DMSO. The final assay solutions contained 50 pM NS3 genotype 1 b protease or 200 pM genotype 3a protease, 20 μM NS4A peptide, and 4 μM substrate (genotype 1b) or 2 μM substrate (genotype 3a). Inhibitor concentrations varied from 100 nM to 5 pM in 3-fold dilutions, and no-inhibitor controls were included.
Compound dilutions were made in DMSO at 20× final concentration. Reaction mixtures were prepared in 96-well assay plates. A solution of enzyme and NS4A peptide in assay buffer (25 μL volume with both reagents at 4× final concentration) was mixed with 45 μL assay buffer and 5 μL of either inhibitor or DMSO, and pre-incubated at room temperature for 1 hour. The reaction was started by addition of 25 μL substrate solution at 4× final concentration. Plates were mixed vigorously for 5-10 seconds and reactions were allowed to proceed for 90 minutes, fluorescence was measured every 30 s between 90 and 120 minutes reaction time using a Tecan InfiniTe M1000 or PerkinElmer Envision multimode plate reader with an excitation wavelength of 340 nm and an emission wavelength of 490 nm.
Rates were calculated from the progress curves at steady state, in the time frame of 90-120 minutes after addition of substrate. To determine the Ki, rates were plotted as a function of inhibitor concentration, and the data were fit with equation 1 (Morrison, J. F., Biochimica et Biophysica Acta 1969, 185, 269-286) to calculate Ki^app using GraphPad Prism 5. Active fraction of enzyme was determined by active site titration with known potent inhibitors. Ki was calculated from Ki^app/(1+[[S]/Km]).

[12] = Hepatitis C virus, read-out: EC50 1A R155K, transient-transfected replicon genotype 1a R155K resistant variant, 72 h
[13] = Hepatitis C virus, read-out: EC50 1B D168A, transient-transfected replicon genotype 1b D168A resistant variant, 72 h
[14] = stable replicon genotype 4a, Renilla luciferase
[15] = stable replicon genotype 3a, Renilla luciferase
[16] = transient-transfected replicon genotype 1a R155K resistant variant, read-out: EC50 1A R155K
[17] = transient-transfected replicon genotype 1b D168A resistant variant, read-out: EC50 1B D168A

HCV NS3 protease domain genotype 3a, sequence (Q81258 whole entry, looked up, the tested form may be a part): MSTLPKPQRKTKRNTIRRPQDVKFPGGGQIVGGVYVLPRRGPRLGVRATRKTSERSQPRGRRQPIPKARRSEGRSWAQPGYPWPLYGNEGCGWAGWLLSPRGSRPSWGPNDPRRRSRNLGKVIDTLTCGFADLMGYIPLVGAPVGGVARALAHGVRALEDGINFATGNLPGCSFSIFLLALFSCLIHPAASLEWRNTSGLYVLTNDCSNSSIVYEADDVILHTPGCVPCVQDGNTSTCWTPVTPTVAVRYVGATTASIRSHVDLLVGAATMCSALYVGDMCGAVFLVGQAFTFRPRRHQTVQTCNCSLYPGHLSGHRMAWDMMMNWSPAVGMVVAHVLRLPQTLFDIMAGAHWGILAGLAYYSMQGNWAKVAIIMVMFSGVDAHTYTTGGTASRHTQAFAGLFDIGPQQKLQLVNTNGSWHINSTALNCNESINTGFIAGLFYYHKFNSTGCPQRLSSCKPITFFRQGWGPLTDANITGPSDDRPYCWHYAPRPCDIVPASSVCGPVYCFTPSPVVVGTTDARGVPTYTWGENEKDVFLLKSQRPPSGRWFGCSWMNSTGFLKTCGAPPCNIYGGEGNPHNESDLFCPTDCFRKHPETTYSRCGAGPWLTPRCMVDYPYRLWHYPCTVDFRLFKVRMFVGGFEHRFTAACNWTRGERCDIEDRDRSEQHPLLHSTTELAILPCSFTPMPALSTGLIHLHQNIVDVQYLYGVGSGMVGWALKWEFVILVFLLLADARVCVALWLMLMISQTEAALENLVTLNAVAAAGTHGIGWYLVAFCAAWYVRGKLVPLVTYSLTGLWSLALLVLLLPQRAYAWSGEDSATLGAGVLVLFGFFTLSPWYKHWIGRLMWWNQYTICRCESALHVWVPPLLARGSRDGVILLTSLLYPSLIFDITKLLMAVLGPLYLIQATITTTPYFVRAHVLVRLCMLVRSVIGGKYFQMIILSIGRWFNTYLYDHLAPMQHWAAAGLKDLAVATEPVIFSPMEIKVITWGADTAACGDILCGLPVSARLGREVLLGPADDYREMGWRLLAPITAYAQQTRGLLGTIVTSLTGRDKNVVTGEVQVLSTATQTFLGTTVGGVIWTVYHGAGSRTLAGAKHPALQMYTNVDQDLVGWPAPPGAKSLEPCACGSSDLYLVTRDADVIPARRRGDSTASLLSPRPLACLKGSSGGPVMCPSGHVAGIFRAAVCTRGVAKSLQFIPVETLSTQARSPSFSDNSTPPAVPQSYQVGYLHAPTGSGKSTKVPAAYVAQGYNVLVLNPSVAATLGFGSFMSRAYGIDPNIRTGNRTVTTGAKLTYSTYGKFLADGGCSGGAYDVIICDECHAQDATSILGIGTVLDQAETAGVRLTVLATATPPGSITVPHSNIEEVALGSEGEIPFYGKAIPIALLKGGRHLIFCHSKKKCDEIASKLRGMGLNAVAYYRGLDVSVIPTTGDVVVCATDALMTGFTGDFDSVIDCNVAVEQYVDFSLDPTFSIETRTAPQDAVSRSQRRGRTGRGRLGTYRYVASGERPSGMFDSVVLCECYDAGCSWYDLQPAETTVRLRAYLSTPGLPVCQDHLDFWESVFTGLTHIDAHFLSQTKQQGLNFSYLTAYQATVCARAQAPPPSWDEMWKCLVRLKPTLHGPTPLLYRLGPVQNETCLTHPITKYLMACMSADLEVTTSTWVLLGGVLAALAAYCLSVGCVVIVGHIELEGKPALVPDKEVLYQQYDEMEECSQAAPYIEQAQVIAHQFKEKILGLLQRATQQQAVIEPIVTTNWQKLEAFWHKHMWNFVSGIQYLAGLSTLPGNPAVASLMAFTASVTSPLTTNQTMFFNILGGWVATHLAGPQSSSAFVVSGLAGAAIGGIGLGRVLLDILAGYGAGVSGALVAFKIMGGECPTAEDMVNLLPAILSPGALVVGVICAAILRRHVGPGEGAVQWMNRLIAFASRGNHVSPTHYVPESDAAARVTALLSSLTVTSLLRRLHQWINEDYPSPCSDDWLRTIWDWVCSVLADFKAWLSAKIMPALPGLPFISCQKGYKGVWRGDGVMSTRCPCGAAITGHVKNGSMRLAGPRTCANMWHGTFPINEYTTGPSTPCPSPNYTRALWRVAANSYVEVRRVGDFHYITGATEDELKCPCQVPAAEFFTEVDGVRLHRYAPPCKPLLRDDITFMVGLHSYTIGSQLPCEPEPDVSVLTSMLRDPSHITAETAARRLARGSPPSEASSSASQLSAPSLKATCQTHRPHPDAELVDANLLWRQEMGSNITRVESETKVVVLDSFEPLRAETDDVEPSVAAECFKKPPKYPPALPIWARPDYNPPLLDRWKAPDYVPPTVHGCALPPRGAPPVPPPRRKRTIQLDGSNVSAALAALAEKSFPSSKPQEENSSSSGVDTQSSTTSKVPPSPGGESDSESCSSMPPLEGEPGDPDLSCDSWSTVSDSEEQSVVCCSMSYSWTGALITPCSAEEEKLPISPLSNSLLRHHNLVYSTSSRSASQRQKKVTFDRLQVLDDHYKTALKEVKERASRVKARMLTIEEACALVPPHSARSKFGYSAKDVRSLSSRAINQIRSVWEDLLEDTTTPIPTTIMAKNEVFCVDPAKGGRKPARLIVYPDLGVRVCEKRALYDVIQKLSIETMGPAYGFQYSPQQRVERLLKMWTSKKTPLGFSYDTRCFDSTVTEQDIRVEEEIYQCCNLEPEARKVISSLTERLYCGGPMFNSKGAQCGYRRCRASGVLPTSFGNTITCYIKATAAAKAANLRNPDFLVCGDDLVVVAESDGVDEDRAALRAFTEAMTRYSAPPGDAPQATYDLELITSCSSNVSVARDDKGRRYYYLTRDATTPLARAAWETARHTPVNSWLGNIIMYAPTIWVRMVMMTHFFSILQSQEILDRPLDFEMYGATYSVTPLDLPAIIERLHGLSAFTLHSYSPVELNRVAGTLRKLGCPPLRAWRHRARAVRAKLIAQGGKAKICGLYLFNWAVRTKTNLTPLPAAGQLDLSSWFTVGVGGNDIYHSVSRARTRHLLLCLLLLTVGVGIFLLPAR

Structure (SMILES) | EC50 ([1]; Hepatitis C virus) [nM] | EC50 ([2]; Hepatitis C virus) [nM] | EC50 ([3]; Hepatitis C virus) [nM] | EC50 ([4]; Hepatitis C virus) [nM] | EC50 [5, 12] [nM] | EC50 ([6]; Hepatitis C virus) [nM] | EC50 [7, 13] [nM] | EC50 ([8]; Hepatitis C virus) [nM] | EC50 ([9]; Hepatitis C virus) [nM] | EC50 [10] [nM] | Ki [11] [nM] | EC50 [1, 14] [nM] | EC50 [2] [nM] | EC50 [3, 15] [nM] | EC50 [4] [nM] | EC50 [5, 16] [nM] | EC50 [6] [nM] | EC50 [7, 17] [nM] | EC50 [8] [nM] | EC50 [9] [nM]
COc1ccc2nc3c(nc2c1)O[C@H]1CN(C(=O)[C@H](C(C)(C)C)NC(=O)O[C@@H]2CC4CC(C4)[C@H]2CCCCC3)[C@H](C(=O)N[C@]2(C(=O)NS(=O)(=O)C3CC3)C[C@H]2C(F)F)[C@@H]1C [Example 71, (4aR,8S,11S,12S,13R,25aR)-8-tert-butyl-N-[(1R,2R)-1-[(cyclopropylsulfonyl)carbamoyl]-2-(difluoromethyl)cyclopropyl]-17-methoxy-12-methyl-6,9-dioxo-2,3,4,4a,6,7,8,9,12,13,21,22,23,24,25,25a-hexadecahydro-1H,11H-1,3,10,13-dimethanoquinoxalino[2,3-k][1,10,3,6]benzodioxadiazacyclononadecine-11-carboxamide] | 5.3 | 6.5 | 160 | 5.3 | 30 | 23 | 66 | 3.8 | 9.1 | 49 | 0.14 |  |  |  |  |  |  |  |  | 
CC[C@@H]1[C@@H]2CN(C(=O)[C@H](C(C)(C)C)NC(=O)O[C@@H]3C[C@H]3CCCCC(F)(F)c3nc4ccc(OC)cc4nc3O2)[C@@H]1C(=O)N[C@]1(C(=O)NS(=O)(=O)C2(C)CC2)C[C@H]1C(F)F [Example 17, (1aR,5S,8S,9S,10R,22aR)-5-tert-butyl-N-[(1R,2R)-2-(difluoromethyl)-1-{[(1-methylcyclopropyl)sulfonyl]carbamoyl}cyclopropyl]-9-ethyl-18,18-difluoro-14-methoxy-3,6-dioxo-1,1a,3,4,5,6,9,10,18,19,20,21,22,22a-tetradecahydro-8H-7,10-methanocyclopropa[18,19][1,10,3,6]dioxadiazacyclononadecino[11,12-b]quinoxaline-8-carboxamide] | 2.9 | 3.9 | 15 | 3.3 | 2.8 | 3.7 | 4.3 | 1.7 | 2.9 | 6.1 | 0.06 |  |  |  |  |  |  |  |  | 
CCOc1ccc2nc3c(nc2c1)O[C@H]1CN(C(=O)[C@H](C(C)(C)C)NC(=O)O[C@@H]2C[C@H]2CCCCC3)[C@H](C(=O)N[C@]2(C(=O)NS(=O)(=O)C3(C)CC3)C[C@H]2C(F)F)[C@@H]1CC [Example 69, (1aR,5S,8S,9S,10R,22aR)-5-tert-butyl-N-[(1R,2R)-2-(difluoromethyl)-1-{[(1-methylcyclopropyl)sulfonyl]carbamoyl}cyclopropyl]-14-ethoxy-9-ethyl-3,6-dioxo-1,1a,3,4,5,6,9,10,18,19,20,21,22,22a-tetradecahydro-8H-7,10-methanocyclopropa[18,19][1,10,3,6]dioxadiazacyclononadecino[11,12-b]quinoxaline-8-carboxamide] | 5.8 | 5.2 | 64 | 4.9 | 15 | 11 | 28 | 3.9 | 8.2 | 42 | 0.17 |  |  |  |  |  |  |  |  | 
CC[C@@H]1[C@@H]2CN(C(=O)[C@H](C(C)(C)C)NC(=O)O[C@@H]3C[C@H]3CCCC3CC3c3nc4ccc(OC)cc4nc3O2)[C@@H]1C(=O)N[C@]1(C(=O)NS(=O)(=O)C2(C)CC2)C[C@H]1C(F)F (stereo partly drawn) [Example 36, (1aR,5S,8S,9S,10R,21aR)-5-tert-butyl-N-[(1R,2R)-2-(difluoromethyl)-1-{[(1-methylcyclopropyl)sulfonyl]carbamoyl}cyclopropyl]-9-ethyl-14-methoxy-3,6-dioxo-1a,3,4,5,6,9,10,17b,18,18a, 19,20,21,21a-tetradecahydro-1H,8H-7,10-methanodicyclopropa[13,14:18,19][1,10,3,6]dioxadiazacyclononadecino[11,12-b]quinoxaline-8-carboxamide] | 9.1 | 23 | 585 | 14 | 271 | 53 | 333 | 9.4 | 16 | 128 | 1.7 |  |  |  |  |  |  |  |  | 
CC[C@@H]1[C@@H]2CN(C(=O)[C@H](C(C)(C)C)NC(=O)O[C@@]3(C(F)(F)F)CCC[C@H]3CCCCCc3nc4ccc(OC)cc4nc3O2)[C@@H]1C(=O)N[C@]1(C(=O)NS(=O)(=O)C2CC2)C[C@H]1C(F)F [Example 12, (7S,10S,11S,12R)-7-tert-butyl-N-[(1R,2R)-1-[(cyclopropylsulfonyl)carbamoyl]-2-(difluoromethyl)cyclopropyl]-11-ethyl-16-methoxy-5,8-dioxo-3aS-(trifluoromethyl)-1,2,3,3a,5,6,7,8,11,12,20,21,22,23,24,24a-hexadecahydro-10H-9,12-methanocyclopenta[18,19][1,10,3,6]dioxadiazacyclononadecino[11,12-b]quinoxaline-10-carboxamide] |  |  |  |  |  |  |  |  |  |  | 1.2 | 21 | 34 | 2010 | 18 | 283 | 25 | 640 | 5.7 | 14
CC[C@@H]1[C@@H]2CN(C(=O)[C@H](C(C)(C)C)NC(=O)O[C@]3(C(F)(F)F)CCCC3CCCCCc3nc4ccc(OC)cc4nc3O2)[C@@H]1C(=O)N[C@]1(C(=O)NS(=O)(=O)C2(C)CC2)C[C@H]1C(F)F (stereo partly drawn) [Example 9, (7S,10S,11S,12R)-7-tert-butyl-N-[(1R,2R)-2-(difluoromethyl)-1-{[(1-methylcyclopropyl)sulfonyl]carbamoyl}cyclopropyl]-11-ethyl-16-methoxy-5,8-dioxo-3aR-(trifluoromethyl)-1,2,3,3a,5,6,7,8,11,12,20,21,22,23,24,24a-hexadecahydro-10H-9,12-methanocyclopenta[18,19][1,10,3,6]dioxadiazacyclononadecino[11,12-b]quinoxaline-10-carboxamide] |  |  |  |  |  |  |  |  |  |  | 0.59 | 11 | 17 | 1270 | 7.9 | 208 | 23 | 360 | 2.5 | 12
